We go through 26 compounds from patent publication US10562909B2, “Fused quadracyclic compounds, compositions and uses thereof” (Tabomedex Biosciences, LLC, priority 2016, dated 2020).

MAPKAPK2, sequence (P49137 whole entry, species assumed): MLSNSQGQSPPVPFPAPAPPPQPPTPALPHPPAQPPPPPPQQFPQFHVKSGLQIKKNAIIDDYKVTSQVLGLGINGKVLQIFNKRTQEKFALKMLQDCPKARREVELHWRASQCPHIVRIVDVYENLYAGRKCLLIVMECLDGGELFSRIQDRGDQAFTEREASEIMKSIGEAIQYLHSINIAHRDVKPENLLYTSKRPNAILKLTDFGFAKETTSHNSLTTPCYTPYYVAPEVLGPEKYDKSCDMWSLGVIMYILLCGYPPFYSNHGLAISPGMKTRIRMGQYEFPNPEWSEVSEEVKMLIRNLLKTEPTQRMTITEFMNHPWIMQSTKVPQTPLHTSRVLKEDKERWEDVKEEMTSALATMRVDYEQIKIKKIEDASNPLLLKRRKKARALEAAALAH

This test has as its target MAPKAPK2 (Homo sapiens, UniProt P49137). As to the kind of experiment: MK2 Enzymatic Assay. The format is biochemical. As to conditions: 0.5 nM MAPKAPK2, 3 μM ATP, 2 μM Ser/Thr4 peptide, 23° C., values given as concentration bins. On the procedure:
Briefly, 5 μL of 2× (4 μM) 100% phosphorylation peptide was delivered into the control wells of a 384-well assay plate. 5 μL of 2× (1 nM) MAPKAPK2 and 2× peptide (4 μM) mixture in assay buffer was dispensed to remaining columns of assay plate using Eppendorf electronic multiple channel pipette. The assay plate was incubated for 20 minutes. 5 μL of 2× ATP (6 μM) in assay buffer was dispensed to each well and then the assay plate was lightly centrifuged. The assay plate was incubated for an additional 120 minutes.
5 μL of development reagent A was dispensed to all wells using Eppendorf electronic multiple channel pipette. After incubating the development reaction for 120 min, plates were read on a Perkin Elmer Envision instrument.
Percent phosphorylation was calculated using the following formula:
[formula] Where • C100%=Average Coumarin emission signal of the 100% Phos. Control • C0%=Average Coumarin emission signal of the 0% Phos. Control • F100%=Average Fluorescein emission signal of the 100% Phos. Control • F0%=Average Flurescein emission signal of the 0% Phos. Control
As for `CN(C)C[C@H]1CN(c2ccc3c(c2)Cn2cc(-c4ccc(F)cc4)cc2-c2nccn2-3)C[C@H]1F` [Compound 467, 1-((3S,4S)-4-fluoro-1-(12-(4-fluorophenyl)-9H-benzo[e]imidazo[2,1-c]pyrrolo[1,2-a][1,4]diazepin-7-yl)pyrrolidin-3-yl)-N,N-dimethylmethanamine], the IC50 was less than 0.05 µM.
To `CN(C)C[C@@H]1CN(c2ccc3c(c2)Cn2cc(-c4ccc(F)cc4)cc2-c2ncnn2-3)C[C@H]1O` [Compound 422, (3S,4R)-4-((dimethylamino)methyl)-1-(12-(4-fluorophenyl)-9H-benzo[e]pyrrolo[1,2-a][1,2,4]triazolo[5,1-c][1,4]diazepin-7-yl)pyrrolidin-3-ol] belongs less than 0.05 µM.
To `CN(C)[C@@H]1CN(c2ccc3c(c2)Cn2cc(-c4ccc(C#N)cc4)cc2-c2nncn2-3)C[C@H]1O` (racemic) [Compound 57, 4-(7-(trans-3-(dimethylamino)-4-hydroxypyrrolidin-1-yl)-9H-benzo[e]pyrrolo[1,2-a][1,2,4]triazolo[3,4-c][1,4]diazepin-12-yl)benzonitrile] belongs less than 0.05 µM; to `CN(C)CC[C@H]1CN(c2ccc3c(c2)Cn2cc(-c4ccc(F)cc4)cc2-c2nccn2-3)C[C@@H]1O` (relative stereo) [Compound 494, Trans-4-(2-(dimethylamino)ethyl)-1-(12-(4-fluorophenyl)-9H-benzo[e]imidazo[2,1-c]pyrrolo[1,2-a][1,4]diazepin-7-yl)pyrrolidin-3-ol], less than 0.05 µM.
With `CC(C)(CO)NC[C@@H]1CCN(c2ccc3c(c2)Cn2cc(-c4ccc(C#N)cc4)cc2-c2nccn2-3)C1` [Compound 141, (S)-4-(7-(3-(((1-hydroxy-2-methylpropan-2-yl)amino)methyl)pyrrolidin-1-yl)-9H-benzo[e]imidazo[2,1-c]pyrrolo[1,2-a][1,4]diazepin-12-yl)benzonitrile] the figure was less than 0.05 µM; with `CN(C)C[C@@H]1CCN(c2ccc3c(c2)Cn2cc(-c4ccc(F)cc4)cc2-c2nccn2-3)C1` [Compound 345, (S)-1-(1-(12-(4-fluorophenyl)-9H-benzo[e]imidazo[2,1-c]pyrrolo[1,2-a][1,4]diazepin-7-yl)pyrrolidin-3-yl)-N,N-dimethylmethanamine], less than 0.05 µM; with `CN(C)C[C@@H]1CN(c2ccc3c(c2)Cn2cc(-c4ccc(F)cc4)cc2-c2ncnn2-3)C[C@@H]1F` [Compound 500, 1-((3R,4R)-4-fluoro-1-(12-(4-fluorophenyl)-9H-benzo[e]pyrrolo[1,2-a][1,2,4]triazolo[5,1-c] [1,4]diazepin-7-yl)pyrrolidin-3-yl)-N,N-dimethylmethanamine], 0.1 to 0.2 µM.
The compound `OC[C@H]1CN(c2ccc3c(c2)Cn2cc(-c4ccc(F)cc4)cc2-c2nccn2-3)C[C@@H]1O` [Compound 484, (3R,4R)-1-(12-(4-fluorophenyl)-9H-benzo[e]imidazo[2,1-c]pyrrolo[1,2-a][1,4]diazepin-7-yl)-4-(hydroxymethyl)pyrrolidin-3-ol] registered a concentration for half-maximal inhibition (IC50) of 0.05 to 0.1 µM.
To `Fc1ccc(-c2cc3n(c2)Cc2cc(N4CCC5(CNC5)C4)ccc2-n2ccnc2-3)cc1` [Compound 376, 12-(4-fluorophenyl)-7-(2,6-diazaspiro[3.4]octan-6-yl)-9H-benzo[e]imidazo[2,1-c]pyrrolo[1,2-a][1,4]diazepine] belongs less than 0.05 µM; to `CN(C)[C@H]1CCN(c2ccc3c(c2)Cn2cc(-c4ccc(C#N)cc4)cc2-c2ncnn2-3)C1` [Compound 260, (S)-4-(7-(3-(dimethylamino)pyrrolidin-1-yl)-9H-benzo[e]pyrrolo[1,2-a][1,2,4]triazolo[5,1-c][1,4]diazepin-12-yl)benzonitrile], less than 0.05 µM.
With `C[C@@H](CO)NC[C@H]1CCN(c2ccc3c(n2)Cn2cc(-c4ccc(F)cc4)cc2-c2nccn2-3)C1` [Compound 437, (S)-2-((((R)-1-(12-(4-fluorophenyl)-9H-imidazo[2,1-c]pyrido[3,2-e]pyrrolo[1,2-a][1,4]diazepin-7-yl)pyrrolidin-3-yl)methyl)amino)propan-1-ol] the figure was less than 0.05 µM; with `CNCC1CN(c2ccc3c(c2)Cn2cc(-c4ccc(C#N)cc4)cc2-c2nncn2-3)C1` [Compound 11, 4-(7-(3-((methylamino)methyl)azetidin-1-yl)-9H-benzo[e]pyrrolo[1,2-a][1,2,4]triazolo[3,4-c][1,4]diazepin-12-yl)benzonitrile], 0.05 to 0.1 µM.
With `CNCC1CN(c2ccc3c(c2)Cn2cc(-c4ccc(C#N)cc4)cc2-c2ncnn2-3)C1` [Compound 250, 4-(7-(3-((methylamino)methyl)azetidin-1-yl)-9H-benzo[e]pyrrolo[1,2-a][1,2,4]triazolo[5,1-c] [1,4]diazepin-12-yl)benzonitrile] the figure was 0.05 to 0.1 µM; with `CN(C)[C@@H]1CN(c2ccc3c(c2)Cn2cc(-c4ccc(F)cc4)cc2-c2ncnn2-3)C[C@H]1O` [Compound 417, (3R,4R)-4-(dimethylamino)-1-(12-(4-fluorophenyl)-9H-benzo[e]pyrrolo[1,2-a][1,2,4]triazolo[5,1-c][1,4]diazepin-7-yl)pyrrolidin-3-ol], 0.05 to 0.1 µM.
Turning to `CN(C)[C@@H]1CCN(c2ccc3c(c2)Cn2cc(-c4ccc(C#N)cc4)cc2-c2ncnn2-3)C1` [Compound 259, (R)-4-(7-(3-(dimethylamino)pyrrolidin-1-yl)-9H-benzo[e]pyrrolo[1,2-a][1,2,4]triazolo[5,1-c][1,4]diazepin-12-yl)benzonitrile], the concentration for half-maximal inhibition (IC50) is less than 0.05 µM.
Consider `CNC[C@@H]1CCN(c2ccc3c(c2)Cn2cc(-c4ccc(C#N)cc4)cc2-c2ncnn2-3)C1` [Compound 262, (S)-4-(7-(3-((methylamino)methyl)pyrrolidin-1-yl)-9H-benzo[e]pyrrolo[1,2-a][1,2,4]triazolo[5,1-c][1,4]diazepin-12-yl)benzonitrile], for which the IC50 is less than 0.05 µM.
Compound `CC(C)N1CC2(CCN(c3ccc4c(c3)Cn3cc(-c5ccc(F)cc5)cc3-c3nccn3-4)C2)C1` [Compound 368, 12-(4-fluorophenyl)-7-(2-isopropyl-2,6-diazaspiro[3.4]octan-6-yl)-9H-benzo[e]imidazo[2,1-c]pyrrolo[1,2-a][1,4]diazepine] showed an IC50 of less than 0.05 µM.
`CN(C)C[C@@H]1CN(c2ccc3c(c2)Cn2cc(-c4ccc(F)cc4)cc2-c2nccn2-3)C[C@@H]1F` [Compound 475, 1-((3R,4R)-4-fluoro-1-(12-(4-fluorophenyl)-9H-benzo[e]imidazo[2,1-c]pyrrolo[1,2-a][1,4]diazepin-7-yl)pyrrolidin-3-yl)-N,N-dimethylmethanamine]: the IC50 is less than 0.05 µM.
As to `CNC[C@H]1CN(c2ccc3c(c2)Cn2cc(-c4ccc(F)cc4)cc2-c2ncnn2-3)C[C@H]1F` [Compound 497, 1-((3S,4S)-4-fluoro-1-(12-(4-fluorophenyl)-9H-benzo[e]pyrrolo[1,2-a][1,2,4]triazolo[5,1-c] [1,4]diazepin-7-yl)pyrrolidin-3-yl)-N-methylmethanamine], the half-maximal inhibitory concentration (IC50) is less than 0.05 µM.
`Cc1cc(N2C[C@@H](CN(C)C)[C@H](O)C2)cc2c1-n1ccnc1-c1cc(-c3ccc(F)cc3)cn1C2` [Compound 512, (3S,4R)-4-((dimethylamino)methyl)-1-(12-(4-fluorophenyl)-5-methyl-9H-benzo[e]imidazo[2,1-c]pyrrolo[1,2-a][1,4]diazepin-7-yl)pyrrolidin-3-ol] had an IC50 of 0.5 to 1 µM.
`NC[C@H]1CN(c2ccc3c(c2)Cn2cc(-c4ccc(F)cc4)cc2-c2nccn2-3)C[C@@H]1O` [Compound 365, (3R,4S)-4-(aminomethyl)-1-(12-(4-fluorophenyl)-9H-benzo[e]imidazo[2,1-c]pyrrolo[1,2-a] [1,4]diazepin-7-yl)pyrrolidin-3-ol] displayed a half-maximal inhibitory concentration (IC50) of 0.05 to 0.1 µM.
To `Fc1ccc(-c2cc3n(c2)Cc2cc(N4CC[C@@H](CNCC(F)F)C4)ccc2-n2ccnc2-3)cc1` [Compound 465, (S)-2,2-difluoro-N-((1-(12-(4-fluorophenyl)-9H-benzo[e]imidazo[2,1-c]pyrrolo[1,2-a][1,4]diazepin-7-yl)pyrrolidin-3-yl)methyl)ethanamine] belongs 0.2 to 1 µM.
With `CN(C)C[C@@H]1CN(c2ccc3c(c2)Cn2cc(-c4ccc(F)cc4)cc2-c2nccn2-3)C[C@@H]1O` [Compound 350, (3R,4R)-4-((dimethylamino)methyl)-1-(12-(4-fluorophenyl)-9H-benzo[e]imidazo[2,1-c]pyrrolo[1,2-a][1,4]diazepin-7-yl)pyrrolidin-3-ol] the figure was less than 0.05 µM.
The compound `O=C(O)C1CCN(CC2CCN(c3ccc4c(c3)Cn3cc(-c5ccc(F)cc5)cc3-c3nccn3-4)C2)CC1` (centres unmarked) [Compound 480, 1-((1-(12-(4-fluorophenyl)-9H-benzo[e]imidazo[2,1-c]pyrrolo[1,2-a][1,4]diazepin-7-yl)pyrrolidin-3-yl)methyl)piperidine-4-carboxylic acid] gave a concentration for half-maximal inhibition (IC50) of 0.05 to 0.1 µM.
On to `CN(C)C[C@H]1CN(c2ccc3c(c2)Cn2cc(-c4ccc(C#N)cc4)cc2-c2nncn2-3)C[C@H]1O` [Compound 81, 4-(7-((3S,4S)-3-((dimethylamino)methyl)-4-hydroxypyrrolidin-1-yl)-9H-benzo[e]pyrrolo[1,2-a][1,2,4]triazolo[3,4-c][1,4]diazepin-12-yl)benzonitrile], for which the IC50 was less than 0.05 µM.
With `CN1CC2(CCN(c3ccc4c(c3)Cn3c(cc(-c5ccc(C#N)cc5)c3Cl)-c3nncn3-4)C2)C1` [Compound 168, 4-(11-chloro-7-(2-methyl-2,6-diazaspiro[3.4]octan-6-yl)-9H-benzo[e]pyrrolo[1,2-a][1,2,4]triazolo[3,4-c][1,4]diazepin-12-yl)benzonitrile], the IC50 is 0.1 to 0.2 µM.
